From US10519119B2, “Nicotinic acid derivatives, their preparation and the use thereof” (XIAMEN INSTITUTE OF RARE EARTH MATERIALS, priority 2017, dated 2019)

Columns and labels:
[1] = system: colorectal cancer cell line HCT-116; experiment: MTT test of activity in inhibiting colorectal cancer cell line HCT-116; format: cell-based, human; conditions: for IC50: Homo sapiens, HCT-116 cells, MTT method, same procedure as A549; for inhibitory activity on colorectal cancer cell line HCT116: statement in words
Protocol: [The procedure below names another cell line; the source lists this cell line under the same test.] (§1) The specific test process was as follows:
(§2) (1) The lung cancer cell line A549 was plated in a 96-well plate and cultured in 100 μL medium. Until the cells were grown to 90%, 1 μL of the drug (i.e., the above example compounds) was added to the wells, each drug was tested for 8 different concentrations (the initial concentration of the drug, 50 μM, 5 μM, 500 nM, 50 nM, 5 nM, […], respectively), and each concentration of drug was experimented in 3 wells. After cultivation for 24 h, 20 μL of the already formulated 5 mg/mL MTT solution was added to each well, and the medium was aspirated after 4 hours, 150 μL DMSO was added to each well and its optical density (OD) value was measured at a wavelength of 595 nm. The negative control was DMSO.
(§3) The IC50 value was calculated by GraphPad Prism5 software.

[2] = system: human lung cancer cell line A549; experiment: MTT test of activity in inhibiting human lung cancer cell A549; format: cell-based; conditions: for IC50: Homo sapiens, A549 cells, MTT method, cultivation 24 h with drug, OD at 595 nm; for inhibitory activity on lung cancer cell line A549: statement in words
Protocol: as §1, §2, §3

[3] = system: breast cancer cell line MCF-7; experiment: MTT test of activity in inhibiting breast cancer cell line MCF-7; format: cell-based, human; conditions: for IC50: Homo sapiens, MCF7, MCF-7 cells, MTT method, same procedure as A549; for inhibitory activity on breast cancer cell line MCF-7: statement in words
Protocol: [The procedure below names another cell line; the source lists this cell line under the same test.] as §1, §2, §3

Row | SMILES | IC50 [1] [µM] | IC50 [2] [µM] | IC50 [3] [µM] | inhibitory activity on colorectal cancer cell line HCT116 [1] | inhibitory activity on lung cancer cell line A549 [2] | inhibitory activity on breast cancer cell line MCF-7 [3]
1 | Cc1ccc(-c2cc(COC(=O)c3ccc(C(F)(F)F)nc3C)on2)cc1 [YP-78] | 72.5 | 198 | 160 | strong inhibitory activity | strong inhibitory activity | strong inhibitory activity
2 | O=C(OCc1cc(-c2ccc(Cl)cc2)no1)c1cc(Cl)cnc1Cl [YP-51] |  | 187 |  | strong inhibitory activity | strong inhibitory activity | strong inhibitory activity
3 | COc1ccc(-c2cc(COC(=O)c3cc(Cl)cnc3Cl)on2)cc1 [YP-44] | 1640 | 172 | 149 | strong inhibitory activity | strong inhibitory activity | strong inhibitory activity
4 | COc1ccc(-c2cc(COC(=O)c3ccc(C(F)(F)F)nc3)on2)cc1 [YP-63] | 287 | 154 | 132 | strong inhibitory activity | strong inhibitory activity | strong inhibitory activity
5 | O=C(OCc1cc(-c2ccc(Br)cc2)no1)c1ccc(C(F)(F)F)nc1 [YP-73] |  | 207 | 43 | strong inhibitory activity | strong inhibitory activity | strong inhibitory activity

The next lines start with results.

Row | IC50 [1] [µM] | IC50 [2] [µM] | IC50 [3] [µM] | SMILES | inhibitory activity on colorectal cancer cell line HCT116 [1] | inhibitory activity on lung cancer cell line A549 [2] | inhibitory activity on breast cancer cell line MCF-7 [3]
6 | 279 | 896 | 124 | Cc1nc(C(F)(F)F)ccc1C(=O)OCc1cc(-c2ccc(Cl)cc2)no1 [YP-89] | strong inhibitory activity | strong inhibitory activity | strong inhibitory activity
7 |  | 241 | 112 | O=C(OCc1cc(-c2ccc(Cl)cc2)no1)c1ccc(Oc2ccccc2)nc1 [YP-108] | strong inhibitory activity | strong inhibitory activity | strong inhibitory activity
